We go through five molecules from patent US4894370A, “Compositions having fermentation analogs of virginiamycin M1 as active ingredient” (Merck & Co., Inc., priority 1988, dated 1990).

The conditions of test [1]: vs CCK-33; cited from earlier work.
In test [2] the test system is gastric acid secretion. The following applies: cited from earlier work.
Test [3] has as its target T1, Pancreatic CCK Receptor (Rattus norvegicus, UniProt P30551).
T1 construct: Pancreatic receptor membranes were prepared by homogenzing a gram of fresh rat pancreas tissue; from tissue; host or cells: rat pancreas membranes
T1 sequence (P30551 1-444): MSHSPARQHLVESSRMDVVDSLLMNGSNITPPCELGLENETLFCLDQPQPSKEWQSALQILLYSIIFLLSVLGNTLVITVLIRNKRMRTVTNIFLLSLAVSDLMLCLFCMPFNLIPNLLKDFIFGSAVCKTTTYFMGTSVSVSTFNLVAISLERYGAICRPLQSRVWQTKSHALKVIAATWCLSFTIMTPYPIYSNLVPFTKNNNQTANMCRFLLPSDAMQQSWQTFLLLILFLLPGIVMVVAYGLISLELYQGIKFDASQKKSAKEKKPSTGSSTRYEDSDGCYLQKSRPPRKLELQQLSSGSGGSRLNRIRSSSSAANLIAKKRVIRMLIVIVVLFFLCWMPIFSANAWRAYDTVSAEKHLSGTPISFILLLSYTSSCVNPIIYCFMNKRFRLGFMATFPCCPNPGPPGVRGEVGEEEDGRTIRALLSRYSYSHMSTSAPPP
The experiment in a line: Pancreatic Cholecystokinin Receptor Binding Assay (125I-CCK-8). The settings on record: added as protease inhibitors. On the procedure:
Radiolabeled CCK-8 was purchased from New England Nullear as ^125 I-CCK-8. Receptor binding was performed according to Innis and Snyder Proc. Natl. Acad. Sci., 77, 6917 (1980), with the minor modification of adding the additional protease inhibitors, phenylmethane sulfonyl fluoride (PMSF) and o-phenanthroline, which have no effect on the ^125 I-CCK receptor binding assay. All assays were performed in triplicate. Pancreatic receptor membranes were prepared by homogenzing a gram of fresh rat pancreas tissue in 30 ml TRIS-HCl (50 mM), pH 7.7 using a Brinkman polytron PT10 (Brinkman). The homogenate was washed twice and collected by centrifugation at 48,000×g at 4° C. for 10 minutes. The membranes were resuspended in assay buffer consisting of 5 mM dithiothieitol, 0.1 mM bacitiacin, 5 mM MgCl2 ·H2 O, 0.2% heat denatured BSA, 1.2 mM PMSF and 0.5 mM O-phenanthroline at a concentration of 100 ml per gram of pancreas. […] The reaction mixtures were mixed briefly and placed in a 37° C. water bath with gentle shaking for 30 minutes. […] The filters were washed with 3×4 ml of the same buffer and the radioactivity associated with the filters was counted in a Beckman Gamma 5500 counter. […] The dried samples were then brought up in methanol/H2 O (1:1) and ready for assay.

Test [4] deals with gram-positive bacteria. The following applies: cited from earlier work.

In the case of “C-terminal octapeptide: C-terminal octapeptide of CCK”, the “efficacy relative to CCK-33” value in test [1] is given as “same efficacy”. In the case of Gastrin-17, in test [2] (vs Gastrin-13), the “potency for stimulating gastric acid secretion relative to Gastrin-13” value is on record as 2.5 times more potent. The “potency for stimulating gastric acid secretion relative to Gastrin-34” value in test [2] (vs Gastrin-34) was 5 times more potent. Regarding `O=S(=O)(F)Cc1ccccc1` [phenylmethane sulfonyl fluoride (PMSF), phenylmethane sulfonyl fluoride], the “effect on the 125I-CCK receptor binding assay” value in test [3] is “no effect”. As to `c1cnc2c(c1)ccc1cccnc12` [o-phenanthroline], the “effect on the 125I-CCK receptor binding assay” value in test [3] is reported as “no effect”. For the molecule `CC1=C\[C@@H](O)CC(=O)Cc2nc(co2)C(=O)N2CCC=C2C(=O)O[C@H](C(C)C)[C@H](C)/C=C/C(=O)NC\C=C\1` [Virginiamycin M1], the antibacterial specificity result in test [4] is “generally specific for gram-positive bacteria”.
